Molecular target: T1, AmiA (Bacteroides uniformis, UniProt A0ABC9NAU1)
T1 sequence (A0ABC9NAU1 24-262): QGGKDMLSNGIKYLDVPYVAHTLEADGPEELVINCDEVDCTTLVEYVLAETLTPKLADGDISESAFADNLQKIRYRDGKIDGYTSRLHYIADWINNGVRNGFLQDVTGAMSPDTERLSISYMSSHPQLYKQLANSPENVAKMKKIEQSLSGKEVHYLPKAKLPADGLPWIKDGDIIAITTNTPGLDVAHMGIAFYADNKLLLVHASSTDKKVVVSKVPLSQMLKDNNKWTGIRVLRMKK
Assay: HPLC inhibition assay with TCT
Assay type: biochemical
Settings: 0.1 mM TCT substrate, pH 7.8, 37°C

| SMILES | % activity retained at 1 mM [%] | % activity retained at 1 mM (reaction product) [%] |
| --- | --- | --- |
| CC(=O)N[C@H]1C(O)O[C@H](CO)[C@@H](O)[C@@H]1O[C@H](C)C(=O)O (stereo partly drawn) [MurNAc] | 25 |  |
| CC(=O)N[C@H]1[C@H](O[C@H]2[C@H](O[C@H](C)C(=O)O)[C@@H](NC(C)=O)[C@@H]3OC[C@H]2O3)O[C@H](CO)[C@@H](O)[C@@H]1O [GlcNAc-anhMurNAc] |  | 15 |
| CC(=O)N[C@H]1C(O)O[C@H](CO)[C@@H](O)[C@@H]1O (stereo partly drawn) [GlcNAc] | 98 |  |
